Reference: patent US6869912B2, “Biocidal composition” (priority 2000, dated 2005)

Assays:
plants and animals = settings: cited from earlier work
[1] = Particle size analysis using a Hiac/Royco 8000A Laser Extinction Counter; type: physicochemical; settings: particles formed in Example 1
Description: Particle size analysis, using a Hiac/Royco […] Laser Extinction Counter of a typical batch of the biocidal preparation gave;

[2] = Settling of copper (II) oxalate particles through water in a measuring cylinder; type: physicochemical; settings: majority of particles, distributed on the surface of a measuring cylinder
Method: A portion of a biocidal composition prepared as described above was distributed on the surface of a measuring cylinder. […] After standing for approximately four hours, samples were taken by pipette from various portions of the water body. The concentration of copper (II) ions in the water body was measured, by way of atomic absorption spectrophotometry, at between 5 and 8 parts per million.

[Cu+2] [copper (II) ions]
Concentration not toxic to almost all plants and animals (plants and animals; over extended periods of time): up to 2 parts per million | Level tolerated by most plants and animals (plants and animals; over relatively short periods of time): 10 parts per million

O=C([O-])C(=O)[O-].[Cu+2] [copper (II) oxalate]
Predominant particle size [1]: below 10 μm | Settling rate of particles [2]: 2-5 metres per hour
